For data set [1], the target named is T1, GlAgo (Giardia Argonaute) (Giardia duodenalis, UniProt A8BCK6).
T1 construct: gene Ago; full-length ORF from Giardia genomic DNA in pET28b, His-tagged (C-terminal His6 encoded by reverse primer), expressed in E. coli BL21(DE3) with chaperones, Ni-NTA purified; strain WB is printed for the trophozoites used, not for the cloning DNA
T1 sequence (A8BCK6 1-900): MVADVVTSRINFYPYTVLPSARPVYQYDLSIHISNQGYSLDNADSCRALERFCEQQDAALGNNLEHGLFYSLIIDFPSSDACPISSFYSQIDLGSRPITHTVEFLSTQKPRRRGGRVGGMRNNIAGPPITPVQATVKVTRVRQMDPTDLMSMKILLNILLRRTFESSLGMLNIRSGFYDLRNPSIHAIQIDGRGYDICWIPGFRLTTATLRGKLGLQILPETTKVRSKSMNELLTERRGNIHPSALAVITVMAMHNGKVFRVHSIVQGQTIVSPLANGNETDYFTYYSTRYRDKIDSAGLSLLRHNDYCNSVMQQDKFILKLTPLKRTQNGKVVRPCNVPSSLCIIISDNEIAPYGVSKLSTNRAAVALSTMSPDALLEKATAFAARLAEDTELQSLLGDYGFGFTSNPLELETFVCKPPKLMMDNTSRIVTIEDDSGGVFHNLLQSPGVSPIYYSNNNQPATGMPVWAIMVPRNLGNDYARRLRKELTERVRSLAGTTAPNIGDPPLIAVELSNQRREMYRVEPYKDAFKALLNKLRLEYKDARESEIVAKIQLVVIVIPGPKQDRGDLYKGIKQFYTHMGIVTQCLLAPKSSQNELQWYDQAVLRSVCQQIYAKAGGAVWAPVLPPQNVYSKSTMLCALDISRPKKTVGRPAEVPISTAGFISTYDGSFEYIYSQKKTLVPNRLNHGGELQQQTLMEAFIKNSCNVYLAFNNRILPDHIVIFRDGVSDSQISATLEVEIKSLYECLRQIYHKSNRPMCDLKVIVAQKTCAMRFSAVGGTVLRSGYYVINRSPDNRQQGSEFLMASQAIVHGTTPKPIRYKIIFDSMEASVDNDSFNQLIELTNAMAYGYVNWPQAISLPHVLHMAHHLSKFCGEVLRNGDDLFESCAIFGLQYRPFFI
The data set can be described thus: m7GpppG-Sepharose affinity retention, elution with free m7GpppG, anti-His Western blot. The following applies: 20 mM HEPES pH 7.4, 150 mM KCl, 1 mM EDTA, 2 mM DTT; washed with 0.1 mM GTP, eluted with 0.1 mM m7GpppG. In kind it is binding.

Data set [2] deals with T2, GlAgo (Giardia Argonaute) (Giardia lamblia, UniProt A8BCK6 1-900).
T2 sequence: T1 sequence (A8BCK6 1-900)
The experiment in a line: EMSA; 10 ng miR2; competed by unlabeled miR2 and by yeast RNA (no sequence specificity); EMSA: native 6% polyacrylamide gel, 10 ng radiolabeled miR2; binding buffer, pH and temperature not given in the material. The conditions noted are these: protein: recombinant; tags: C-terminal 6xHis (encoded in reverse primer S6); single strand. In general terms: A gel shift assay detects complexes by their altered migration in electrophoresis.

Experimental findings from paper PMC2583053, “snoRNA, a Novel Precursor of microRNA in Giardia lamblia” (PLoS Pathogens, 2008) are described below.

Turning to `C[n+]1cn([C@@H]2O[C@H](COP(=O)(O)OP(=O)(O)OP(=O)(O)OC[C@H]3O[C@@H](n4cnc5c(=O)[nH]c(N)nc54)[C@H](O)[C@@H]3O)[C@@H](O)[C@H]2O)c2nc(N)[nH]c(=O)c21` [m^7GpppG], the “m7GpppG-Sepharose affinity retention, elution with free m7GpppG, anti-His Wester” value in data set [1] is recorded as “the protein was specifically eluted off the Sepharose beads with m^7GpppG”.

B1: miR2 (ssRNA)
RNA: CAGCCUAAUCACCGCCCCUAUAGUCC
On to B1, for which the binding result in data set [2] is on record as “binds”.
